This series in a line: Stability of Form 2 of Compound 1 under storage conditions (impurities by UPLC, solid form by XRPD). The class given is physicochemical. As to conditions: for Storage stability: up to 6 months. How it is done:
To measure stability of the Form 2 of Compound 1 under storage conditions, samples of Form 2 of Compound 1 were placed in double low-density polyethylene bags with desiccant between the bags and each was placed into a high-density polyethylene drum. One drum was stored at a temperature of 25° C. and 60% relative humidity (RH), and a second drum was stored at a temperature of 40° C. and 75% RH. Samples of the material were taken from both drums at 1 month, 3 months, and 6 months and the samples were analyzed for the presence of impurities. The amount of the Form 2 of Compound 1, and the amount of any impurities, in each sample was measured by ultra-performance liquid chromatography (UPLC) using the test conditions set and solvent gradients forth in Table 5 and Table 6. The samples were tested to determine the amount remaining of Form 2 at each time point, and the measurements were conducted by x-ray powder diffraction (XRPD) according to USP <941>.

Where [1] appears, read: 25° C. and 60% RH, Initial (Time = zero).
[2] abbreviates: 40° C. and at 75% RH, Initial (Time = zero).

SMILES strings stand for the structures.

`Cc1cc(CN(C)C)ccc1-c1cnc(NCc2c(F)ccc3c2CCO3)n2cc(C#N)nc12` [Form 2 of Compound 1, 8-(4-((dimethylamino)methyl)-2-methylphenyl)-5-(((5-fluoro-2,3-dihydrobenzofuran-4-yl)methyl)amino)imidazo[1,2-c]pyrimidine-2-carbonitrile]: the “Total impurities present (% area measured by UPLC)” value under setting [1] was found to be 1.4 % area; the “Total impurities present (% area measured by UPLC)” value (25° C. and 60% RH, Time = 1 month) is 1.4 % area; the “Total impurities present (% area measured by UPLC)” value (25° C. and 60% RH, Time = 3 months) is 1.4 % area; the “Total impurities present (% area measured by UPLC)” value (25° C. and 60% RH, Time = 6 months) worked out at 1.4 % area; the “Total impurities present (% area measured by UPLC)” value under setting [2] came to 1.4 % area; the “Total impurities present (% area measured by UPLC)” value (40° C. and at 75% RH, Time = 1 month) came out at 1.4 % area. For the same molecule, the “Total impurities present (% area measured by UPLC)” value (40° C. and at 75% RH, Time = 3 months) is recorded as 1.4 % area; the “Total impurities present (% area measured by UPLC)” value (40° C. and at 75% RH, Time = 6 months) amounted to 1.4 % area. The XRPD result is “Crystalline” under setting [1]; “Crystalline” (25° C. and 60% RH, Time = 1 month, consistent with T = 0); “Crystalline” (25° C. and 60% RH, Time = 3 months, consistent with T = 0); “Crystalline” (25° C. and 60% RH, Time = 6 months, consistent with T = 0); “Crystalline” under setting [2]; “Crystalline” (40° C. and at 75% RH, Time = 1 month, consistent with T = 0). The XRPD entry by setting is: (40° C. and at 75% RH, Time = 3 months, consistent with T = 0) “Crystalline”; (40° C. and at 75% RH, Time = 6 months, consistent with T = 0) “Crystalline”. The Storage stability entry is “stable” (stored at 25° C. and 60% RH); “stable” (stored at 40° C. and at 75% RH).

Source of the values: patent US20260092068A1, “PHYSICAL FORMS OF AN INHIBITOR OF PRC2” (ORIC Pharmaceuticals, Inc., priority 2022, published 2026).
